Legend:
Assay type in all cases: cell-based
OVCAR-3 (ovary) = assay: In vitro cell proliferation assay (SRB), OVCAR3; conditions: Homo sapiens, SRB method, 96 hours, read-out: Inhibition of cell growth (IC50, μM) OVCAR3
Description: (§1) Cancer cell lines to determine the effect of 5, 6, or 7-substituted-3-(hetero)arylisoquinolinamine compounds were obtained from the following sources: Human MDA-MB-231 (breast), PC3 (prostate), HCT-15 (colon), HCT116 (colon), OVCAR-3 (ovary), Caki-1 (kidney), PANC-1 (pancreas), SNB-19 (glioblastoma) and SK-MEL-28 (melanoma) from the American Type Culture Collection (ATCC) (Manassas, Va.). PC3, OVCAR-3, SK-MEL-28 and SNB-19 were grown in RPMI1640 medium (Invitrogen, Carlsbad, Calif.) supplemented with 10% fetal bovine serum (“FBS”), 1 mM sodium pyruvate, 10 mM HEPES and 100 U/ml penicillin and 100 μg/ml streptomycin (“P/S”). MDA-MB-231, Caki-1, HCT-15 (colon) and PANC-1 cells were maintained in Dulbecco's modified Eagle's medium (“DMEM”, Invitrogen) supplemented with 10% FBS, P/S and 10 mM HEPES. HCT116 cells were maintained in DMEM supplemented with 10% FBS, P/S and 10 mM HEPES for in vitro cell proliferation assay and in RPMI1640 medium supplemented with 10% FBS, 1 mM sodium pyruvate, 10 mM HEPES and P/S for in vitro cell cycle analysis. All cells were incubated at 37° C. under humidified 5% CO2.
(§2) The growth inhibition of the 5, 6, or 7-substituted-3-(hetero)arylisoquinolinamine derivatives against a variety of human tumor cells was evaluated to study the relative importance of particular substituent groups on the compounds. The 5, 6, or 7-substituted-3-(hetero)arylisoquinolinamine derivatives, prepared as described above, were tested with DMSO as a control.
(§3) The growth inhibition assay of representative 5, 6, or 7-substituted-3-(hetero)arylisoquinolinamine derivatives against human tumor cell lines was performed using the Sulforhodamine B (“SRB”) method (Skehan et al., J. National Cancer Institute, 82: 1107-1112 (1990)). Briefly, exponentially growing tumor cells were seeded into a 96-well plate at a density of 2-3×10^3 cells/well and treated with 5, 6, or 7-substituted-3-(hetero)arylisoquinolinamine compounds the next day. Triplicate wells were used for each treatment. The cells were incubated with the various compounds for 96 hours at 37° C. in a humidified 5% CO2 atmosphere. After 96-hour incubation, cells were fixed with 10% trichloroacetic acid (“TCA”), incubated for 1 hour at 4° C., and washed 3 times with tap water. Subsequently, cells were stained with 0.4% sulforhodamine B in 1% acetic acid for 30 minutes, washed 4 times with 1% acetic acid, and air-dried again. After 5 minutes agitation in 10 mM Tris solution, the absorbance of each well was measured at 530 nm using Benchmark Plus Microplate reader (Bio-Rad Laboratories, Hercules, Calif.).
(§4) To translate the OD530 values into the number of live cells in each well, the OD530 values were compared to those on standard OD530-versus-cell number curves generated for each cell line. The percent survival was calculated using the formula: % Survival=live cell number [test]/live cell number [control]×100
(§5) The IC50 values were calculated by non-linear regression analysis.

Caki-1 (kidney) = assay: In vitro cell proliferation assay (SRB), Caki-1; conditions: Homo sapiens, SRB method, 96 hours, read-out: Inhibition of cell growth (IC50, μM) Caki-1
Description: as §1, §2, §3, §4, §5

MDA-MB-231 (breast) = assay: In vitro cell proliferation assay (SRB), MDA-MB-231; conditions: Homo sapiens, SRB method, 96 hours, read-out: Inhibition of cell growth (IC50, μM) MDA-MB-231
Description: as §1, §2, §3, §4, §5

SNB-19 (glioblastoma) = assay: In vitro cell proliferation assay (SRB), SNB19; conditions: Homo sapiens, SRB method, 96 hours, read-out: Inhibition of cell growth (IC50, μM) SNB19
Description: as §1, §2, §3, §4, §5

SK-MEL-28 (melanoma) = assay: In vitro cell proliferation assay (SRB), SK-MEL-28; conditions: Homo sapiens, SRB method, 96 hours, read-out: Inhibition of cell growth (IC50, μM) SK-MEL-28
Description: as §1, §2, §3, §4, §5

human cancer cell lines = assay: Growth inhibition against the panel of human tumor cell lines (SRB), overall statements; conditions: Table 3 cell lines
Description: as §1, §2, §3, §4, §5
Using QSAR and medicinal chemistry techniques, a large number of compounds, including the compounds shown in Table 1-2 above, were synthesized. The synthesized compounds were screened against at least four cancer cell lines, PANC-1, MDA-MB-231, HCT116 and Caki-1, at approximately 1 μM concentration. Compounds showing activity in at least one of these cell lines were selected for further screening. From these compounds, thirty compounds were selected for further evaluation as broad-spectrum anti-proliferative agents as shown in the following Table 3.

PC3 (prostate) = assay: In vitro cell proliferation assay (SRB), PC3; conditions: Homo sapiens; SRB method, 96 hours; read-out: Inhibition of cell growth (IC50, μM) PC3
Description: as §1, §2, §3, §4, §5

HCT116 (colon) = assay: In vitro cell proliferation assay (SRB), HCT116; conditions: Homo sapiens, HCT-116; SRB method, 96 hours; Table 3; read-out: Inhibition of cell growth (IC50, μM) HCT116
Description: as §1, §2, §3, §4, §5

PANC-1 (pancreas) = assay: In vitro cell proliferation assay (SRB), PANC-1; conditions: Homo sapiens, SRB method, 96 hours, read-out: Inhibition of cell growth (IC50, μM) PANC-1
Description: as §1, §2, §3, §4, §5

IC50 (OVCAR-3 (ovary)) [µM] | IC50 (MDA-MB-231 (breast)) [µM] | IC50 (SNB-19 (glioblastoma)) [µM] | IC50 (SK-MEL-28 (melanoma)) [µM] | IC50 (PC3 (prostate)) [µM] | IC50 (HCT116 (colon)) [µM] | IC50 (PANC-1 (pancreas)) [µM] | Structure (SMILES) | IC50 (Caki-1 (kidney)) [µM] | activity in growth inhibition of human cancer cell compared to Compound 23 (human cancer cell lines)
0.27 | 0.34 | 0.63 | 0.46 | 0.77 | 0.45 | 0.65 | COc1ccc2c(N)nc(-c3ccccc3)cc2c1 [Compound 11, 6-methoxy-3-phenylisoquinolin-1-amine] | 0.47 | 
0.14 | 0.15 | 0.25 | 0.33 | 0.23 | 0.18 | 0.19 | COc1ccc(-c2cc3ccc(N(C)C)cc3c(N)n2)cc1OC.Cl [Compound 15, 3-(3,4-Dimethoxyphenyl)-N^7,N^7-dimethylisoquinoline-1,7-diamine hydrochloride] | 0.17 | equal or better activity
0.57 | 0.66 | 2.15 | 1.41 | 2.69 | 0.85 | 1.75 | COc1ccc(-c2cc3cc(C)ccc3c(N)n2)cc1OC [Compound 27, 3-(3,4-Dimethoxyphenyl)-6-methylisoquinolin-1-amine] | 0.51 | 
0.51 | 0.32 | 0.78 | 0.67 | 1.01 | 0.47 | 0.68 | COc1ccccc1-c1cc2ccc(C)cc2c(N)n1 [Compound 37, 3-(2-Methoxyphenyl)-7-methylisoquinolin-1-amine] | 0.22 | 
0.27 | 0.44 | 0.71 | 0.75 | 0.58 | 0.52 | 0.67 | COc1cc2cc(-c3ccccc3)nc(N)c2cc1OC [Compound 51, 6,7-Dimethoxy-3-phenylisoquinolin-1-amine] | 0.59 | 
0.16 | 0.25 | 0.42 | 0.63 | 0.68 | 0.79 | 0.54 | COc1cc2cc(-c3c(C)cccc3C)nc(N)c2cc1OC [Compound 53, 6,7-Dimethoxy-3-(2,6-dimethylphenyl)isoquinolin-1-amine] | 0.53 | 
0.58 | 0.79 | 1.56 | 1.12 | 2.5 | 2.32 | 2.27 | COc1cc2cc(-c3cccc(C)c3)nc(N)c2cc1OC [Compound 54, 6,7-Dimethoxy-3-m-tolylisoquinolin-1-amine] | 1.78 | 
0.19 | 0.4 | 0.4 | 0.69 | 0.72 | 0.77 | 0.7 | COc1cc(OC)cc(-c2cc3cc(OC)c(OC)cc3c(N)n2)c1 [Compound 55, 6,7-Dimethoxy-3-(3,5-dimethoxyphenyl)isoquinolin-1-amine] | 0.54 | 
0.38 | 0.54 | 0.56 | 0.91 | 1.25 | 0.78 | 0.83 | COc1cc2cc(-c3ccccc3C)nc(N)c2cc1OC [Compound 56, 6,7-Dimethoxy-3-o-tolylisoquinolin-1-amine] | 0.67 | 

Continued, compound first:

Structure (SMILES) | IC50 (OVCAR-3 (ovary)) [µM] | IC50 (MDA-MB-231 (breast)) [µM] | IC50 (SNB-19 (glioblastoma)) [µM] | IC50 (SK-MEL-28 (melanoma)) [µM] | IC50 (PC3 (prostate)) [µM] | IC50 (HCT116 (colon)) [µM] | IC50 (PANC-1 (pancreas)) [µM] | IC50 (Caki-1 (kidney)) [µM] | activity in growth inhibition of human cancer cell compared to Compound 23 (human cancer cell lines)
Cc1ccc(Cl)cc1-c1cc2ccc(Cl)cc2c(N)n1 [Compound 10, 7-chloro-3-(5-chloro-2-methylphenyl)isoquinolin-1-amine] | 0.071 | 0.11 | 0.19 | 0.14 | 0.26 | 0.14 | 0.17 | 0.15 | equal or better activity
COc1ccccc1-c1cc2cc(C)ccc2c(N)n1 [Compound 24, 3-(2-Methoxyphenyl)-6-methylisoquinolin-1-amine] | 0.49 | 0.44 | 1.13 | 0.8 | > 3 | 0.67 | 0.93 | 0.35 | 
COc1ccc(-c2cc3cc(C)ccc3c(N)n2)cc1 [Compound 26, 3-(4-Methoxyphenyl)-6-methylisoquinolin-1-amine] | 0.79 | 0.93 | 2.23 | 1.8 | 2.98 | 1.36 | 2.27 | 0.75 | 
COc1cc(OC)cc(-c2cc3cc(C)ccc3c(N)n2)c1 [Compound 30, 3-(3,5-Dimethoxyphenyl)-6-methylisoquinolin-1-amine] | 0.18 | 0.18 | 0.47 | 0.41 | 0.43 | 0.24 | 0.38 | 0.16 | 
Cc1ccc2c(N)nc(-c3ccccc3F)cc2c1 [Compound 33, 3-(2-Fluorophenyl)-6-methylisoquinolin-1-amine] | 0.57 | 0.55 | 1.51 | 1.07 | 1.84 | 0.7 | 1.59 | 0.46 | 
Cc1cccc(-c2cc3cc(C)ccc3c(N)n2)c1 [Compound 35, 6-Methyl-3-m-tolylisoquinolin-1-amine] | 0.47 | 0.57 | 0.75 | 0.72 | 1.19 | 0.59 | 1.28 | 0.69 | 
COc1cccc(-c2cc3ccc(C)cc3c(N)n2)c1 [Compound 38, 3-(3-Methoxyphenyl)-7-methylisoquinolin-1-amine] | 0.24 | 0.17 | 0.48 | 0.41 | 0.42 | 0.21 | 0.47 | 0.14 | 
Cc1ccc2cc(-c3ccccc3F)nc(N)c2c1 [Compound 41, 3-(2-Fluorophenyl)-7-methylisoquinolin-1-amine] | 0.91 | 0.72 | 2.2 | 1.62 | 2.76 | 1.22 | 2.14 | 0.59 | 
Cc1cccc(-c2cc3ccc(C)cc3c(N)n2)c1 [Compound 49, 7-Methyl-3-m-tolylisoquinolin-1-amine] | 0.29 | 0.21 | 0.53 | 0.5 | 0.71 | 0.28 | 0.69 | 0.44 | 

— US8314123B2, “5, 6, or 7-substituted -3-(hetero) arylisoquinolinamine derivatives and therapeutic use thereof” (Rexahn Pharmaceuticals, Inc., priority 2006, dated 2012)
